Results reported in patent US20140341939A1 (NATIONAL UNIVERSITY CORPORATION KOCHI UNIVERSITY, priority 2011, published 2014).
“Also recorded” adds a separate entry of the source. Where no end group is shown, it is not given here.

Assays:
[1] = test system: peptidase activity in the serum; assay: Effect of peptidase inhibitor on OVII peptide digestion by mouse serum; assay type: biochemical; settings: inhibitor-containing buffer (FIGS. 22-24)
Excerpt: Given the above-mentioned Examples, the inventor examined the effect of peptidase inhibitor on the peptide digestion to identify the peptidase in the serum.

[2] = test system: DO11.10 cells; assay: Growth of CD4 T cells: proliferation of DO11.10 cells by OVII modified peptides (3H-thymidine); assay type: cell-based, mouse
[3] = molecular target: T1, ACE (Mus musculus, UniProt P09470); assay: ACE activity of antigen presenting cell (CH1-IA^d cells, Abz-FRK(Dnp)P-OH substrate); assay type: cell-based; settings: 2.5 mM inhibitor, preincubated 37° C. 20 min; 10 μM Abz-FRK(Dnp)P-OH (FIG. 25)
T1 construct: endogenous in cells; host or cells: CH1-IA^d cells (living, in PBS)
T1 sequence (P09470 35-1312): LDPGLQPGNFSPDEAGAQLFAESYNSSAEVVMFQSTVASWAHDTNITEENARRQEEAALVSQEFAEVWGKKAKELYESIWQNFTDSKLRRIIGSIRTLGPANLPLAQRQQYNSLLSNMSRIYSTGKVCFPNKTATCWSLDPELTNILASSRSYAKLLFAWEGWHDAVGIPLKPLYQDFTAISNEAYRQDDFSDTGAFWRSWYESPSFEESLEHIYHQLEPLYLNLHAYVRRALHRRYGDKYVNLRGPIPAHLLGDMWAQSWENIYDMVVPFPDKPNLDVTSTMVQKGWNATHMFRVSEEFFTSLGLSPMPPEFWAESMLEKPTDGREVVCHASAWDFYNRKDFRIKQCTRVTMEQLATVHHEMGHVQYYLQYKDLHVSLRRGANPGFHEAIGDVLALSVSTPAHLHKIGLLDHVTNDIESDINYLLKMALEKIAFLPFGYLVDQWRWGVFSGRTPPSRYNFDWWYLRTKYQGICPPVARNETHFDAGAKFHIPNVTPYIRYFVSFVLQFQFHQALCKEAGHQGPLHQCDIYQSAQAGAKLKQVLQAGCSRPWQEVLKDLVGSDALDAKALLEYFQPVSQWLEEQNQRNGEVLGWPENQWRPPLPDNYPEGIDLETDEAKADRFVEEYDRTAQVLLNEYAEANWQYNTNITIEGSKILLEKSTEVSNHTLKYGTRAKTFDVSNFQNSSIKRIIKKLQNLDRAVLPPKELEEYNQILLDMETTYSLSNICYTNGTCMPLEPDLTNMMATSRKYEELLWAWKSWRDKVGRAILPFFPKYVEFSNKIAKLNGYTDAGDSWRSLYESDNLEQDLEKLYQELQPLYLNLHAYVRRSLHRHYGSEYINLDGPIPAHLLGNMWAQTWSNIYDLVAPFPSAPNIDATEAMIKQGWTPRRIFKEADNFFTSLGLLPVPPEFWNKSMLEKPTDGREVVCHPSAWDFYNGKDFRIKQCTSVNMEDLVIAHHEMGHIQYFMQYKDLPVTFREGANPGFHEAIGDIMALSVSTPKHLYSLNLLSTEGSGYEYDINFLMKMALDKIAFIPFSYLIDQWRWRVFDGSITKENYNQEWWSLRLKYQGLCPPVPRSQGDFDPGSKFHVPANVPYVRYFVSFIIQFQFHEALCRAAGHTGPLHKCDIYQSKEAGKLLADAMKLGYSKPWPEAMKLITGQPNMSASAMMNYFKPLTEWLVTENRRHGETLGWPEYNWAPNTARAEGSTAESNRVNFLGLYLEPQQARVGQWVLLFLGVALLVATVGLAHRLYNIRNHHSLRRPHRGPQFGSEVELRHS
Experimental: The ACE activity of the cell surface was measured by a modified method of the method described in Sabatini, R. et al., Anal Biochem 363: 255-262, 2007.
10 μM Abz-FRK(Dnp)P-OH (Sigma, St. Louis) was added and the cells were incubated at 37° C. for a given time. The reaction was quenched by placing them on ice. After centrifugation, fluorescence in the supernatant was measured at excitation wavelength of 320 nm and emission wavelength of 420 nm (FIG. 25).

[4] = in vitro; settings: mouse, serum
Experimental: (§1) Peptide was digested in TBS containing 10% fresh mouse serum or fresh human serum. After incubation at 37° C. for a given time, 1% trifluoro acid was added to remove various serum proteins by precipitation. After short centrifugation, the soluble fraction was analyzed by reversed-phase HPLC using a C18 analysis column. To normalize variation in the total amount of the peptide loaded for each HPLC, the peak of non-protein components contained in the serum, which is absorbed at the wavelength of 220 nm, was used as an internal control. The peak area of undigested peptides was quantitatively monitored by Chromatopac C-R8A (Shimadzu Corp., Kyoto, Japan), and the amount of the remaining peptide was calculated.
(§2) Therefore, the inventor examined the digestion resistance of peptide in vitro in a 10% fresh mouse serum. The amount of a remaining undigested peptide was quantified by HPLC.

[5] = test system: serum peptidase
Experimental: as §1, §2

[6] = test system: DO11.10 cells; assay: Antigen presentation by F2-IA^d vascular endothelial cells (CD69 expression by DO11.10 cells); assay type: cell-based, mouse
Experimental: EL4 cells were first opsonized with RGD peptide. Next, 5 mg/ml OVA protein was loaded on the cytoplasm by osmotic pressure loading. After sufficient washing, 2×10^6 EL4 cells were added to a confluent culture medium of F2-IA^d cells on a 24-well plate (cultured for 2 days in advance in the presence of 500 U/ml rmIFN-γ). As a control, EL4 and EG7 mock-loaded with PBS were RGD-modified in the same manner and used. EL4 and other target cells were added to F2-IA^d, and the cell mixture was cultured for 24 hr. As for the control well wherein F2-IA^d cells were directly loaded with OVAII peptide, the cells were pulsed with peptide for 2 hr at the end of the culture. After removing the non-adherent cells and debris of dead cells, the surface of the adhered F2-IA^d cells was sufficiently washed. In an antigen presentation inhibitory experiment using chloroquine, 100 μM chloroquine was added 30 min before addition of EL4, EL4 loaded with OVA or 0.25 mg/ml OVA protein. Furthermore, F2-IA^d cells were cultured for 3 days in the continuous presence of chloroquine.
Whether the F2-IA^d cells presented the target antigen polypeptide on the cell surface was evaluated by monitoring the expression of CD69 by DO11.10 cells. The antigen-presenting F2-IA^d cells and DO11.10 cells were mixed and centrifuged to contact the cells with one another. After 6 hr and 24 hr, the cells were stained with biotin-labeled anti CD69 mAb (H1.2F3, BD Biosciences), and the expression of CD69 by DO11.10 cells was detected by flow cytometry (stained positive with FITC-labeled KJ1.26 (anti clonotypic TCR mAb)).

[7] = test system: EG7 tumor; assay: Antitumor activity by in vivo immunization with OVA-derived peptides (EL4 / EG7 tumor); settings: CBF1 mouse, peptide-loaded LPS blast i.p. 3 times; EL4 / EG7 tumor (FIG. 8)
Excerpt: CBF1 mouse was immunized with LPS blast of splenocyte pulsed with either λ repressor peptide ([…]; SEQ ID NO: 39) or OVAII peptide as a Th epitope peptide, and K^b-binding OVA-I peptide, which is a CTL inducing peptide. LPS blast derived from one spleen was pulsed with peptide, and intraperitoneally injected to immunize two mice. The next day of the third immunization, 9×10^6 EL4 cells and 1.2×10^7 EG7 cells were intradermally transplanted in a pair on the back skin of the mice. The tumor size was measured every other day. Immunization was performed once again 2 weeks from the tumor transplantation.
To verify the anti-tumor effect of inducing tumor-specific Th cells in vivo, the inventor compared the immunization protocol that induces 1. CTL alone, 2. CTL and a third party antigen-specific Th cell, and 3. CTL and tumor-specific Th cell. As the antigen presenting cell, LPS blast of spleen cell was used, and the APC loaded with each peptide alone or the mixture of each peptide was injected intraperitoneally 3 times (once per week). On the day of third immunization, 9×10^6 EL4 and 1.2×10^7 EG7 tumor were innoculated on the opposite sides of the back, and the tumor diameter was measured from day 4.

[8] = test system: DO11.10 cells; assay: Cell migration test through F2-IA^d cell layer (Transwell); assay type: cell-based, mouse
Experimental: F2-IA^d cells were cultured until confluence on an insert of Transwell plate (BD Labware, Billerica, Calif.). The cells were cultured in the presence of 500 U/ml rmIFN-γ for the last 3 days of culture. In addition, F2-IA^d cells were pulsed with various concentrations of OVAII peptide for the last 2 hr of culture. After the culture, F2-IA^d cells were washed and CD4^+ cells were isolated by negative selection (Dynal mouse CD4 negative isolation kit (Invitrogen)) from DO11.10 transgenic spleen cells to not less than 95% purity, which were added by 4×10^6 cells per well. The cells were incubated at 37° C., and the number of DO11.10 that migrated under the chamber in 6 hr was counted.

[9] = molecular target: T2, I-A^d molecule (Mus musculus, UniProt P01921+P04228); assay: Peptide-binding assay on CH1-IA^d cells (FITC-streptavidin, flow cytometry); settings: CH1-IA^d cells (FIG. 17)
T2 construct: expressed in transfected cells; host or cells: CH1 cells, retroviral transduction with pMX (I-Aβ-IRES-I-Aα)
T2 sequence (P04228 24-256): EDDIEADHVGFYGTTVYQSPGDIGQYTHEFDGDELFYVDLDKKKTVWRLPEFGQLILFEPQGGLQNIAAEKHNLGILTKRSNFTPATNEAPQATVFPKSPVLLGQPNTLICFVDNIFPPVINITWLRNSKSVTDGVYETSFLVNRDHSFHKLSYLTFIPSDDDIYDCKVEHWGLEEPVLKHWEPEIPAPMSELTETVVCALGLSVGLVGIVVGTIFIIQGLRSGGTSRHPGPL
T2 sequence (P01921 28-265): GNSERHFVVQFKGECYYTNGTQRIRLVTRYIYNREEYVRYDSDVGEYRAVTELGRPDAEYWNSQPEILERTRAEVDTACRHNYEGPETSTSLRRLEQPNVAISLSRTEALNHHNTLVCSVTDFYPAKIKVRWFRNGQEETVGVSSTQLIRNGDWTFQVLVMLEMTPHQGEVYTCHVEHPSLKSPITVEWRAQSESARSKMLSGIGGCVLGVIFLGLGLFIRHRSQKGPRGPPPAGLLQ
Experimental: The CH1-IA^d or CH1-IA^b cells were suspended in 2% BSA IMDM to 2×10^6 cells/ml. The cell suspension (100 μl) was added to peptide (100 μl) continuously diluted with serum-free IMDM. After incubating at 37° C. for 2 hr, 6 hr or 16 hr, the cells were washed and stained with FITC-streptavidin. The amount of peptide bound to the cells was measured by flow cytometry.

[10] = test system: FBL3 erythroleukemia cells; assay: In vivo antitumor activity in FBL3 tumor mice immunized with MHC class I and class II peptide; settings: CBF1 mouse
Excerpt: In the immunization experiment using mouse, the mouse was immunized with PbW332bPβ peptide as a Th-inducing peptide, and Db126 peptide as a CTL inducing peptide. As a tumor to be inoculated to the mouse, FBL3 erythroleukemia cell that highly expresses natural WT1 tumor antigen was used. FBL3 is a cell line that was transformed by infection with Friend leukemia virus, and has high possibility of also expressing virus antigen. In fact, when 2×10^7 FBL3 cells were intradermally injected on the back of the mouse, they grew into a solid tumor. However, the tumor had the tendency to shrink naturally after reaching the maximum size. […] Over time, the tumor sometimes started to grow rapidly in a long-term observation.
CBF1 mouse was immunized in advance by subcutaneous injection of 50 nmoles of Db126 peptide alone, or Db126 peptide and 50 nmoles of W332 peptide, to 4 sites in the top, bottom, left and right of the back. A vaccine of 5×10^7 Bordetella pertussis whole cells was added as an adjuvant to all immunization groups including control PBS inoculation group. The mouse was immunized 3 times (once per week) and then 2×10^7 FBL3 cells were subcutaneously injected to the back.

[11] = test system: serum peptidase; assay: Degradation of peptide in 10% fresh mouse serum (HPLC of remaining peptide); settings: 10% fresh mouse serum, up to 16 hr (FIG. 21)
Experimental: as §1, §2

[12] = as above; settings: mouse, 10% fresh mouse serum
Experimental: as §1, §2

[13] = test system: Th cell; assay: In vivo immunization using modified molecule of WA36 (IFN-γ positive Th cells); set-up: species or system mouse; settings: IFN-γ positive Th cells (FIG. 27)
[14] = low concentration of pulsed peptide (0.1 μM or less) (FIG. 5)

C[C@H](CS)C(=O)N1CCC[C@H]1C(=O)O [captopril]
inhibition of OVII peptide digestion / peptidase activity in serum [1]: suppressed in a concentration-dependent manner
sensitization activity of OVII on addition of captopril ([2]; 2.5 mM captopril in medium (FIGS. 14, 15)): improved the sensitization activity of OVII to a level close to that of OVIIPA peptide
survival of DO11.10 cells ([2]; 5 mM captopril): cannot survive

c1cnc2c(c1)ccc1cccnc12 [o-phenanthrolin]
inhibition of peptide degrading enzyme activity associated with living cells [3]: inhibited
inhibition of OVII peptide digestion / peptidase activity in serum [1]: almost completely inhibited

ISQAVHAAHAEINEA [OVII]
metabolised at 2 h [4]: 40%
undigested peptide left [5]: undigested peptide was not left

ISQAVHAAHAEINEAGR (peptide inducing Th) [OVAII]
expression of CD69 in DO11.10 cells ([6]; F2-IA^d cells pulsed with 0.1 μM peptide): induced expression of CD69 in DO11.10 cells to the same level as when OVA-loaded EL4 was incorporated
stimulation of DO11.10 cells by peptide-pulsed endothelial cells ([6]; F2-IA^d cells pulsed with peptide (FIG. 2)): could stimulate DO11.10 cells
induction of the expression of CD69 [6, 14]: induction of the expression of CD69 was hardly confirmed
tumor control, Th peptide together with OVA-I [7]: enabled better control of the tumor; also recorded: completely disappeared in a part of the mice
migration of DO11.10 cells through F2-IA^d cell layer ([8]; high concentration of pulsed peptide (FIG. 5)): did not migrate by penetrating the F2-IA^d cell layer
migration of DO11.10 cells through F2-IA^d cell layer [8, 14]: actively migrated, and penetrated the F2-IA^d cell layer

ISQAVHAAHAEINEAR [OVII+]
binding activity to I-A^d molecule, effect of added Arg [9]: did not affect the binding activity to I-A^d molecule

KRYFKLSHLQMHSRKH [W332, WT1 antigen-derived polypeptide]
antitumor activity, Th-inducing peptide together with Db126 peptide ([10]; 50 nmoles each peptide s.c. with Wc adjuvant, 3 times, FBL3 tumor (FIG. 29)): stronger antitumor activity than Db126 single peptide immunization
long-term remaining tumor, Th-inducing peptide together with Db126 peptide ([10]; FBL3 tumor, vs Wc alone, Db126 or W332 single immunization): tends to shrink

PSISQAVHAAHAEINEA [POVII]
digestion resistance to serum peptidases (in words) [11]: very strong enzyme resistance
remaining at 16 h [12]: ~70%

PVLDFAPPGASAYGS [WA36, WT1 antigen-derived polypeptide]
induction of Th cell to the tumor antigen in in vivo immunization [13]: induction of Th cell was extremely difficult
